Source: patent US20070049564A1 (Wyeth, priority 2005, published 2007)
In brackets after ≈: the same amount, converted by molar mass. Like-named read-outs stand apart in the source and are kept apart here.

How the values were obtained:
E. faecalis GC 2265 = experiment: MIC, broth microdilution; settings: Enterococcus faecalis
S. aureus GC 6335 = experiment: MIC, broth microdilution; settings: Staphylococcus aureus
E. faecium GC 4556 = experiment: MIC, broth microdilution; settings: Enterococcus faecium
E. coli GC 2233 = experiment: MIC, broth microdilution; settings: Escherichia coli
S. agalactiae GC 4564 = experiment: MIC, broth microdilution; settings: Streptococcus agalactiae
E. coli GC 2270 = experiment: MIC, broth microdilution; settings: Escherichia coli
c. albicans GC 3066 = experiment: MIC, broth microdilution
S. aureus GC 1079 = experiment: MIC, broth microdilution; settings: Staphylococcus aureus
E. coli GC 3226 = experiment: MIC, broth microdilution; settings: Escherichia coli
E. coli GC 2236 = experiment: MIC, broth microdilution; settings: Escherichia coli
Staph. = experiment: Range of MIC for Staph. strains, including MRSA; settings: Staphylococcus aureus
E. coli GC 1073 = experiment: MIC, broth microdilution; settings: Escherichia coli
E. coli GC 2271 = experiment: MIC, broth microdilution; settings: Escherichia coli
E. faecium GC 2243 = experiment: MIC, broth microdilution; settings: Enterococcus faecium
S. typhimurium GC 2172 = experiment: MIC, broth microdilution; settings: Salmonella enterica, TYPHIMURIUM
E. coli GC 2235 = experiment: MIC, broth microdilution; settings: Escherichia coli
E. coli = experiment: Range of MIC for E. coli strains; settings: Escherichia coli
E. faecalis GC 4555 = experiment: MIC, broth microdilution; settings: Enterococcus faecalis
S. pyogenes GC 4563 = experiment: MIC, broth microdilution; settings: Streptococcus pyogenes
S. aureus GC 6469 = experiment: MIC, broth microdilution; settings: Staphylococcus aureus

CCC(=O)OCOC(=O)N(CC(=O)Nc1cc(N(C)C)c2c(c1O)C(=O)C1=C(O)[C@]3(O)C(=O)C(C(N)=O)=C(O)[C@@H](N(C)C)[C@@H]3C[C@@H]1C2)C(C)(C)C [Example 49, ({[(2-{[(5aR,6aS,7S,10aS)-9-(aminocarbonyl)-4,7-bis(dimethylamino)-1,8,10a,11-tetrahydroxy-10,12-dioxo-5,5a,6,6a,7,10,10a,12-octahydrotetracen-2-yl]amino}-2-oxoethyl)(tert-butyl)amino]carbonyl}oxy)methyl propionate]
MIC (E. faecalis GC 2265; GC2265, read-out: MINIMAL INHIBITORY CONCENTRATION MIC, Human Serum): 1 µg/mL (≈ 1.4 µM)
MIC (E. faecalis GC 2265; GC2265, read-out: MINIMAL INHIBITORY CONCENTRATION MIC, Mouse Serum): 0.5 µg/mL (≈ 0.699 µM)
MIC (E. faecalis GC 2265; GC2265, read-out: MINIMAL INHIBITORY CONCENTRATION MIC, Water): 2 µg/mL (≈ 2.79 µM)
MIC (S. aureus GC 6335; GC6335, read-out: MINIMAL INHIBITORY CONCENTRATION MIC, Human Serum): 1 µg/mL (≈ 1.4 µM)
MIC (S. aureus GC 6335; GC6335, read-out: MINIMAL INHIBITORY CONCENTRATION MIC, Mouse Serum): 1 µg/mL (≈ 1.4 µM)
MIC (S. aureus GC 6335; GC6335, read-out: MINIMAL INHIBITORY CONCENTRATION MIC, Water): 2 µg/mL (≈ 2.79 µM)
MIC (E. faecium GC 4556; GC4556, read-out: MINIMAL INHIBITORY CONCENTRATION MIC, Human Serum): 1 µg/mL (≈ 1.4 µM)
MIC (E. faecium GC 4556; GC4556, read-out: MINIMAL INHIBITORY CONCENTRATION MIC, Mouse Serum): 0.5 µg/mL (≈ 0.699 µM)
MIC (E. faecium GC 4556; GC4556, read-out: MINIMAL INHIBITORY CONCENTRATION MIC, Water): 2 µg/mL (≈ 2.79 µM)
MIC (E. coli GC 2233; GC2233, read-out: MINIMAL INHIBITORY CONCENTRATION MIC, Human Serum): 4 µg/mL (≈ 5.59 µM)
MIC (E. coli GC 2233; GC2233, read-out: MINIMAL INHIBITORY CONCENTRATION MIC, Mouse Serum): 0.25 µg/mL (≈ 0.349 µM)
MIC (E. coli GC 2233; GC2233, read-out: MINIMAL INHIBITORY CONCENTRATION MIC, Water): 8 µg/mL (≈ 11.2 µM)
MIC (S. agalactiae GC 4564; GC4564, read-out: MINIMAL INHIBITORY CONCENTRATION MIC, Human Serum): 0.12 µg/mL (≈ 0.168 µM)
MIC (S. agalactiae GC 4564; GC4564, read-out: MINIMAL INHIBITORY CONCENTRATION MIC, Mouse Serum): 0.12 µg/mL (≈ 0.168 µM)
MIC (S. agalactiae GC 4564; GC4564, read-out: MINIMAL INHIBITORY CONCENTRATION MIC, Water): 0.25 µg/mL (≈ 0.349 µM)
MIC (E. coli GC 2270; GC2270, read-out: MINIMAL INHIBITORY CONCENTRATION MIC, Human Serum): 4 µg/mL (≈ 5.59 µM)
MIC (E. coli GC 2270; GC2270, read-out: MINIMAL INHIBITORY CONCENTRATION MIC, Mouse Serum): 0.5 µg/mL (≈ 0.699 µM)
MIC (E. coli GC 2270; GC2270, read-out: MINIMAL INHIBITORY CONCENTRATION MIC, Water): 16 µg/mL (≈ 22.4 µM)
MIC (c. albicans GC 3066; Candida albicans, GC3066, read-out: MINIMAL INHIBITORY CONCENTRATION MIC): > 64 µg/mL
MINIMAL INHIBITORY CONCENTRATION MIC (c. albicans GC 3066; Human Serum): >64 UG/ML
MINIMAL INHIBITORY CONCENTRATION MIC (c. albicans GC 3066; Mouse Serum): >64 UG/ML
MIC (S. aureus GC 1079; GC1079, read-out: MINIMAL INHIBITORY CONCENTRATION MIC, Human Serum): 0.5 µg/mL (≈ 0.699 µM)
MIC (S. aureus GC 1079; GC1079, read-out: MINIMAL INHIBITORY CONCENTRATION MIC, Mouse Serum): 0.5 µg/mL (≈ 0.699 µM)
MIC (S. aureus GC 1079; GC1079, read-out: MINIMAL INHIBITORY CONCENTRATION MIC, Water): 0.5 µg/mL (≈ 0.699 µM)
MIC (E. coli GC 3226; GC3226, read-out: MINIMAL INHIBITORY CONCENTRATION MIC, Human Serum): 8 µg/mL (≈ 11.2 µM)
MIC (E. coli GC 3226; GC3226, read-out: MINIMAL INHIBITORY CONCENTRATION MIC, Mouse Serum): 0.5 µg/mL (≈ 0.699 µM)
MIC (E. coli GC 3226; GC3226, read-out: MINIMAL INHIBITORY CONCENTRATION MIC, Water): 16 µg/mL (≈ 22.4 µM)
MIC (E. coli GC 2236; GC2236, read-out: MINIMAL INHIBITORY CONCENTRATION MIC, Human Serum): 4 µg/mL (≈ 5.59 µM)
MIC (E. coli GC 2236; GC2236, read-out: MINIMAL INHIBITORY CONCENTRATION MIC, Mouse Serum): 0.5 µg/mL (≈ 0.699 µM)
MIC (E. coli GC 2236; GC2236, read-out: MINIMAL INHIBITORY CONCENTRATION MIC, Water): 16 µg/mL (≈ 22.4 µM)
MIC (Staph.; MRSA, read-out: Range of MIC, Staph (Mouse Serum)): 0.12 to 1 µg/mL (≈ 0.168 to 1.4 µM)
MIC (Staph.; MRSA, read-out: Range of MIC, Staph (Water)): 0.12 to 2 µg/mL (≈ 0.168 to 2.79 µM)
MIC (Staph.; read-out: Minimum inhibitory concentration (MIC), Staph (Human Serum)): 0.12 to 1 µg/mL (≈ 0.168 to 1.4 µM)
MIC (Staph.; read-out: Minimum inhibitory concentration (MIC), Staph (Water)): 0.12 to 2 µg/mL (≈ 0.168 to 2.79 µM)
MIC (E. coli GC 1073; GC1073, read-out: MINIMAL INHIBITORY CONCENTRATION MIC, Human Serum): 8 µg/mL (≈ 11.2 µM)
MIC (E. coli GC 1073; GC1073, read-out: MINIMAL INHIBITORY CONCENTRATION MIC, Mouse Serum): 0.5 µg/mL (≈ 0.699 µM)
MIC (E. coli GC 1073; GC1073, read-out: MINIMAL INHIBITORY CONCENTRATION MIC, Water): 32 µg/mL (≈ 44.7 µM)
MIC (E. coli GC 2271; GC2271, read-out: MINIMAL INHIBITORY CONCENTRATION MIC, Human Serum): 4 µg/mL (≈ 5.59 µM)
MIC (E. coli GC 2271; GC2271, read-out: MINIMAL INHIBITORY CONCENTRATION MIC, Mouse Serum): 0.25 µg/mL (≈ 0.349 µM)
MIC (E. coli GC 2271; GC2271, read-out: MINIMAL INHIBITORY CONCENTRATION MIC, Water): 8 µg/mL (≈ 11.2 µM)
MIC (E. faecium GC 2243; GC2243, read-out: MINIMAL INHIBITORY CONCENTRATION MIC, Human Serum): 0.25 µg/mL (≈ 0.349 µM)
MIC (E. faecium GC 2243; GC2243, read-out: MINIMAL INHIBITORY CONCENTRATION MIC, Mouse Serum): 0.25 µg/mL (≈ 0.349 µM)
MIC (E. faecium GC 2243; GC2243, read-out: MINIMAL INHIBITORY CONCENTRATION MIC, Water): 0.5 µg/mL (≈ 0.699 µM)
MIC (S. typhimurium GC 2172; read-out: MINIMAL INHIBITORY CONCENTRATION MIC, Human Serum): 32 µg/mL (≈ 44.7 µM)
MIC (S. typhimurium GC 2172; read-out: MINIMAL INHIBITORY CONCENTRATION MIC, Mouse Serum): 4 µg/mL (≈ 5.59 µM)
MIC (S. typhimurium GC 2172; read-out: MINIMAL INHIBITORY CONCENTRATION MIC, Water): > 64 µg/mL
MIC (E. coli GC 2235; GC2235, read-out: MINIMAL INHIBITORY CONCENTRATION MIC, Human Serum): 4 µg/mL (≈ 5.59 µM)
MIC (E. coli GC 2235; GC2235, read-out: MINIMAL INHIBITORY CONCENTRATION MIC, Mouse Serum): 0.5 µg/mL (≈ 0.699 µM)
MIC (E. coli GC 2235; GC2235, read-out: MINIMAL INHIBITORY CONCENTRATION MIC, Water): 8 µg/mL (≈ 11.2 µM)
MIC (E. coli; 20 h, read-out: Range of MIC, E. coli (Mouse Serum)): 0.25 to 2 µg/mL (≈ 0.349 to 2.79 µM)
MIC (E. coli; read-out: Minimum inhibitory concentration (MIC), E. coli (Human Serum)): 4 to 32 µg/mL (≈ 5.59 to 44.7 µM)
MIC (E. faecalis GC 4555; GC4555, read-out: MINIMAL INHIBITORY CONCENTRATION MIC, Human Serum): 0.5 µg/mL (≈ 0.699 µM)
MIC (E. faecalis GC 4555; GC4555, read-out: MINIMAL INHIBITORY CONCENTRATION MIC, Mouse Serum): 0.25 µg/mL (≈ 0.349 µM)
MIC (E. faecalis GC 4555; GC4555, read-out: MINIMAL INHIBITORY CONCENTRATION MIC, Water): 4 µg/mL (≈ 5.59 µM)
MIC (S. pyogenes GC 4563; GC4563, read-out: MINIMAL INHIBITORY CONCENTRATION MIC, Human Serum): 0.12 µg/mL (≈ 0.168 µM)
MIC (S. pyogenes GC 4563; GC4563, read-out: MINIMAL INHIBITORY CONCENTRATION MIC, Mouse Serum): 0.12 µg/mL (≈ 0.168 µM)
MIC (S. pyogenes GC 4563; GC4563, read-out: MINIMAL INHIBITORY CONCENTRATION MIC, Water): 0.12 µg/mL (≈ 0.168 µM)
MIC (S. aureus GC 6469; GC6469, read-out: MINIMAL INHIBITORY CONCENTRATION MIC, Human Serum): 1 µg/mL (≈ 1.4 µM)
MIC (S. aureus GC 6469; GC6469, read-out: MINIMAL INHIBITORY CONCENTRATION MIC, Mouse Serum): 1 µg/mL (≈ 1.4 µM)
MIC (S. aureus GC 6469; GC6469, read-out: MINIMAL INHIBITORY CONCENTRATION MIC, Water): 1 µg/mL (≈ 1.4 µM)
